The CheMixHub viscosity set

Assay: xn = mol fraction of the nth substance listed

CCCCNCCCC + CCCCCCCO
viscosity [mPa·s], 101.33 kPa
Conditions	x1 = 0.0975	x1 = 0.197	x1 = 0.2901	x1 = 0.3789	x1 = 0.4808	x1 = 0.5861	x1 = 0.685	x1 = 0.7862	x1 = 0.8807
303.15 K	4.226	3.629	3.099	2.63	2.15	1.741	1.432	1.171	0.9696
313.15 K	3.151	2.716	2.337	2.013	1.685	1.393	1.169	0.9814	0.8316

COCCO + CCCCCCCO
viscosity [mPa·s], 101 kPa
Conditions	x1 = 0.1451	x1 = 0.2763	x1 = 0.3956	x1 = 0.5044	x1 = 0.6043	x1 = 0.6961	x1 = 0.7808	x1 = 0.8593	x1 = 0.9322
298.15 K	4.92	3.963	3.336	2.889	2.551	2.252	2.054	1.852	1.79
308.15 K	3.116	2.561	2.23	1.936	1.753	1.592	1.489	1.341	1.247
318.15 K	2.496	2.203	1.906	1.611	1.487	1.455	1.465	1.142	1.095

CCCCNCCCC + CCCCCCO
viscosity [mPa·s], 101.33 kPa
Conditions	x1 = 0.1034	x1 = 0.1705	x1 = 0.2901	x1 = 0.3817	x1 = 0.5001	x1 = 0.5958	x1 = 0.6955	x1 = 0.7942	x1 = 0.9007
303.15 K	3.304	2.992	2.495	2.156	1.776	1.52	1.277	1.088	0.9036
313.15 K	2.723	2.473	2.069	1.792	1.475	1.265	1.088	0.9214	0.7818

COCCO + CCCCCCO
viscosity [mPa·s], 101 kPa
Conditions	x1 = 0.1298	x1 = 0.2513	x1 = 0.3653	x1 = 0.4723	x1 = 0.5731	x1 = 0.6682	x1 = 0.758	x1 = 0.843	x1 = 0.9236
298.15 K	3.765	3.225	2.811	2.458	2.25	2.076	1.94	1.815	1.707
308.15 K	2.612	2.233	2.027	1.815	1.667	1.487	1.356	1.303	1.273
318.15 K	2.193	1.908	1.648	1.477	1.356	1.278	1.211	1.129	1.083

COCCO + CCCCCO
viscosity [mPa·s]
Conditions	298.15 K	308.15 K	318.15 K
101 kPa, x1 = 0.114	2.939	2.12	1.659
101 kPa, x1 = 0.2246	2.569	1.894	1.525
101 kPa, x1 = 0.3317	2.346	1.724	1.427
101 kPa, x1 = 0.4357	2.155	1.543	1.279
101 kPa, x1 = 0.5367	2.007	1.442	1.234
101 kPa, x1 = 0.6347	1.894	1.413	1.222
101 kPa, x1 = 0.7299	1.8	1.306	1.208
101 kPa, x1 = 0.8225	1.72	1.254	1.035
101 kPa, x1 = 0.9125	1.686	1.249	1.036
101.33 kPa, x1 = 0.1741	–	1.966	–
101.33 kPa, x1 = 0.2604	–	1.804	–
101.33 kPa, x1 = 0.3455	–	1.665	–
101.33 kPa, x1 = 0.4796	–	1.511	–
101.33 kPa, x1 = 0.6102	–	1.385	–
101.33 kPa, x1 = 0.7245	–	1.309	–
101.33 kPa, x1 = 0.78	–	1.284	–
101.33 kPa, x1 = 0.9014	–	1.23	–
